# Test system: OVCAR-5 complex spheroid (HUVEC/MSC), viability % T/C
# Assay: Anticancer human tumor OVCAR-5 cell line growth inhibition [Asc];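 note: spheroids exposed to agents for 7 days before readout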;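 for viability, T/C: 100% = DMSO vehicle-treated wells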
# Details: for IC50: curve of first compound; for viability, T/C: stronger effect = lower value
# Method in brief: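 Tumor cells were grown as multicellular spheroids with stromal HUVEC and mesenchymal stem cells and treated singly or in combination. Concentrations fell in half-log steps from the clinical Cmax, or from 10 microM where none was known.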
# [1] = second compound 0.01 µM, first compound 0.0316 µM
# [2] = second compound 0.01 µM, first compound 0.1 µM
# [3] = second compound 0.01 µM, first compound 0.316 µM
# [4] = second compound 0.01 µM, first compound 1 µM
# [5] = second compound 0.0316 µM, first compound 0.0316 µM
# [6] = second compound 0.0316 µM, first compound 0.1 µM
# [7] = second compound 0.0316 µM, first compound 0.316 µM
# [8] = second compound 0.0316 µM, first compound 1 µM
# [9] = second compound 0.1 µM, first compound 0.0316 µM
# [10] = second compound 0.1 µM, first compound 0.1 µM
# [11] = second compound 0.1 µM, first compound 0.316 µM
# [12] = second compound 0.1 µM, first compound 1 µM
# [13] = second compound 0.316 µM, first compound 0.0316 µM
# [14] = second compound 0.316 µM, first compound 0.1 µM
# [15] = second compound 0.316 µM, first compound 0.316 µM
# [16] = second compound 0.316 µM, first compound 1 µM
# [17] = second compound 1 µM, first compound 0.0316 µM
# [18] = second compound 1 µM, first compound 0.1 µM
# [19] = second compound 1 µM, first compound 0.316 µM
# [20] = second compound 1 µM, first compound 1 µM
Compound,IC50 (second compound 0.01 µM) [µM],IC50 (second compound 0.0316 µM) [µM],IC50 (second compound 0.1 µM) [µM],IC50 (second compound 0.316 µM) [µM],IC50 (second compound 1 µM) [µM],"viability, T/C [1] [%]","viability, T/C [2] [%]","viability, T/C [3] [%]","viability, T/C [4] [%]","viability, T/C [5] [%]","viability, T/C [6] [%]","viability, T/C [7] [%]","viability, T/C [8] [%]","viability, T/C [9] [%]","viability, T/C [10] [%]","viability, T/C [11] [%]","viability, T/C [12] [%]","viability, T/C [13] [%]","viability, T/C [14] [%]","viability, T/C [15] [%]",further results
O=C(c1cc(Cc2n[nH]c(=O)c3ccccc23)ccc1F)N1CCN(C(=O)C2CC2)CC1 + CNC(C)C(=O)NC1CN(S(=O)(=O)c2cccc(S(=O)(=O)N3CCC4CCC(C(=O)NC(c5ccccc5)c5ccccc5)N4C(=O)C(NC(=O)C(C)NC)C3)c2)CCC2CCC(C(=O)NC(c3ccccc3)c3ccccc3)N2C1=O,> 10,> 10,> 10,> 10,> 10,97.3,95.8,87.1,96.2,81.4,88.3,81.7,74.6,84.9,95.6,77.9,74.8,77.4,75.5,80.7,"viability, T/C (second compound 0.01 µM, first compound 3.16 µM): 80.5%; viability, T/C (second compound 0.01 µM, first compound 10 µM): 70.3%; viability, T/C (second compound 0.0316 µM, first compound 3.16 µM): 77.9%; viability, T/C (second compound 0.0316 µM, first compound 10 µM): 67.9%; viability, T/C (second compound 0.1 µM, first compound 3.16 µM): 75.1%; viability, T/C (second compound 0.1 µM, first compound 10 µM): 55.5%; viability, T/C [16]: 75.5%; viability, T/C (second compound 0.316 µM, first compound 3.16 µM): 67.2%; viability, T/C (second compound 0.316 µM, first compound 10 µM): 62%; viability, T/C [17]: 83.5%; viability, T/C [18]: 76.1%; viability, T/C [19]: 88.9%; viability, T/C [20]: 73.8%; viability, T/C (second compound 1 µM, first compound 3.16 µM): 65.3%; viability, T/C (second compound 1 µM, first compound 10 µM): 55.9%"
O=C(c1ccc(F)c(F)c1Nc1ccc(I)cc1F)N1CC(O)([C@@H]2CCCCN2)C1 + CNC(C)C(=O)NC1CN(S(=O)(=O)c2cccc(S(=O)(=O)N3CCC4CCC(C(=O)NC(c5ccccc5)c5ccccc5)N4C(=O)C(NC(=O)C(C)NC)C3)c2)CCC2CCC(C(=O)NC(c3ccccc3)c3ccccc3)N2C1=O,0.11,0.108,0.0762,0.0492,0.0726,62.6,51.2,40.9,31.8,64.5,51.4,36.7,25.5,62.5,46.5,34.2,30.3,54.5,42.8,32.8,"viability, T/C (second compound 0.01 µM, first compound 0.00316 µM): 92.2%; viability, T/C (second compound 0.01 µM, first compound 0.01 µM): 80.4%; viability, T/C (second compound 0.0316 µM, first compound 0.00316 µM): 83.6%; viability, T/C (second compound 0.0316 µM, first compound 0.01 µM): 78.1%; viability, T/C (second compound 0.1 µM, first compound 0.00316 µM): 80%; viability, T/C (second compound 0.1 µM, first compound 0.01 µM): 79.1%; viability, T/C (second compound 0.316 µM, first compound 0.00316 µM): 77.7%; viability, T/C (second compound 0.316 µM, first compound 0.01 µM): 67.3%; viability, T/C [16]: 26.8%; viability, T/C (second compound 1 µM, first compound 0.00316 µM): 79.8%; viability, T/C (second compound 1 µM, first compound 0.01 µM): 76.9%; viability, T/C [17]: 59.4%; viability, T/C [18]: 47.7%; viability, T/C [19]: 29.7%; viability, T/C [20]: 24.1%"

# Source: PubChem BioAssay AID1963436 (Molecular Pharmacology Branch, DTP, NCI, 2024)
